Experimental data from patent US20250346602A1, “LACTAM SUBSTITUTED IMIDAZOPYRIDAZINE IL-17A MODULATORS AND USES THEREOF” (DICE ALPHA, INC., priority 2022, published 2025).

Molecular target: T1, IL-17A/A (Homo sapiens, UniProt Q16552)
T1 construct: purchased Genscript Z03228
T1 sequence (Q16552 24-155): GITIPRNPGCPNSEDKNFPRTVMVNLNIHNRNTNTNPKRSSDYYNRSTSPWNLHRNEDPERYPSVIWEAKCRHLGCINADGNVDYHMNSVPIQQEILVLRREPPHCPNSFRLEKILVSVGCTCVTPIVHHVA
Assay: IL-17A/A HEK-Blue cell assay
Type: cell-based
Settings: HEK-Blue IL-17A reporter cell line (HEK 293), IL-17A/A stimulation, 20 hours incubation, SEAP read at A630
In short: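 IC50 came from a 4-parameter fit of SEAP read at A630 (Quanti-Blue). Compound was titrated to a top final concentration of 10, 1 or 0.3 uM with 0.1% final DMSO and added just before IL-17A/A. Incubation lasted 20 hours in HEK293 cells engineered with IL-17RA, IL-17RC, Act1 and an NFκB-SEAP reporter.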

Row | SMILES | IC50
1 | CCn1nccc1C(=O)N[C@H](c1cn2nc(C(C)C3C[C@@H](C(F)(F)F)CNC3=O)ccc2n1)C(C1CC1)C1CC1 (single isomer, unassigned) [Compound 55] | 100 to 1000 nM
2 | O=C1NC[C@H](C(F)(F)F)CC1Cc1ccc2nc([C@@H](NC(=O)C3CC34CC(F)(F)C4)C3CCC(F)(F)CC3)cn2n1 (single isomer, unassigned) [Compound 131] | 100 to 1000 nM
3 | CC(C)n1nccc1C(=O)N[C@H](c1cn2nc(CC3C[C@@H](C(F)(F)F)CNC3=O)ccc2n1)[C@H]1CCCC(F)(F)C1 (stereo partly drawn) [Compound 148, N-((1S)—((S)-3,3-difluorocyclohexyl)(6-(((5R)-2-oxo-5-(trifluoromethyl)piperidin-3-yl)methyl)imidazo[1,2-b]pyridazin-2-yl)methyl)-1-isopropyl-1H-pyrazole-5-carboxamide] | < 100 nM
4 | CCn1nccc1C(=O)N[C@H](c1cn2nc(CC3C[C@@H](C(F)(F)F)CNC3=O)ccc2n1)C(C1CC1)C1CC1 (stereo partly drawn) [Compound 96, N-((1S)-2,2-dicyclopropyl-1-(6-(((5R)-2-oxo-5-(trifluoromethyl)piperidin-3-yl)methyl)imidazo[1,2-b]pyridazin-2-yl)ethyl)-1-ethyl-1H-pyrazole-5-carboxamide] | 100 to 1000 nM
5 | CCn1nccc1C(=O)N[C@H](c1cn2nc(CC3C[C@@H](C(F)(F)F)CNC3=O)ccc2n1)C1CCCCCC1 (stereo partly drawn) [Compound 169, N—((S)-cycloheptyl(6-(((3R.5R)-2-oxo-5-(trifluoromethyl)piperidin-3-yl)methyl)imidazo[1,2-b]pyridazin-2-yl)methyl)-1-ethyl-1H-pyrazole-5-carboxamide] | 100 to 1000 nM
6 | CCn1nccc1C(=O)N[C@H](c1cn2nc(C[C@H]3CCCNC3=O)ccc2n1)C(C1CC1)C1CC1 (single isomer, unassigned) [Compound 34] | > 1000 nM
7 | CCn1nccc1C(=O)N[C@H](c1cn2ncc(CC3C[C@@H](C(F)(F)F)NC3=O)cc2n1)C1CCC(F)(F)CC1 (single isomer, unassigned) [Compound 204] | < 100 nM
8 | O=C(N[C@H](c1cn2ncc(CC3C[C@@H](C(F)(F)F)NC3=O)cc2n1)C1CCC(F)(F)CC1)c1nonc1C1CC1 (single isomer, unassigned) [Compound 205] | < 100 nM
9 | CC(C)n1nncc1C(=O)N[C@H](c1cn2nc(CC3C[C@@H](C(F)(F)F)CNC3=O)ccc2n1)C1CCC(F)(F)CC1 (stereo partly drawn) [Compound 107, N-((1S)-(4,4-difluorocyclohexyl)(6-(((5R)-2-oxo-5-(trifluoromethyl)piperidin-3-yl)methyl)imidazo[1,2-b]pyridazin-2-yl)methyl)-1-isopropyl-1H-1,2,3-triazole-5-carboxamide] | 100 to 1000 nM
10 | CCc1nonc1C(=O)N[C@H](c1cn2nc(C[C@H]3C[C@@H](C(F)(F)F)NC3=O)ccc2n1)C(C1CC1)C1CC1 [Compound 20, N—((S)-2,2-dicyclopropyl-1-(6-(((3R,5S)-2-oxo-5-(trifluoromethyl)pyrrolidin-3-yl)methyl)imidazo[1,2-b]pyridazin-2-yl)ethyl)-4-ethyl-1,2,5-oxadiazole-3-carboxamide] | 100 to 1000 nM
11 | CCn1nccc1C(=O)N[C@H](c1cn2nc(CC3C(=O)NCCC3C)ccc2n1)[C@H]1CC[C@H](C)CC1 (single isomer, unassigned) [Compound 54] | 100 to 1000 nM
12 | CCn1nccc1C(=O)N[C@H](c1cn2nc(CC3C[C@@H](C(F)(F)F)CNC3=O)ccc2n1)[C@@H]1C[C@H]2C[C@H]2C1 (stereo partly drawn) [Compound 170, N-((1S)-((1R,3S,5S)-bicyclo[3.1.0]hexan-3-yl)(6-(((5R)-2-oxo-5-(trifluoromethyl)piperidin-3-yl)methyl)imidazo[1,2-b]pyridazin-2-yl)methyl)-1-ethyl-1H-pyrazole-5-carboxamide] | > 1000 nM
